Results from patent US20160176880A1, “SUBSTITUTED IMIDAZO[1,2-A]PYRAZINECARBOXAMIDES AND USE THEREOF” (BAYER PHARMA AKTIENGESELLSCHAFT, priority 2013, published 2016).
Where a name gives a salt, the structure may show the parent alone.

What follows are molecules tested against T1, recombinant guanylate cyclase reporter cell line (Rattus norvegicus, UniProt P19686+P20595) (assay: Effect on a recombinant guanylate cyclase reporter cell line). Conditions: MEC = minimum effective concentration; in some cases mean values for individual determinations.
T1 construct: expressed in transfected cells
T1 sequence (P19686 1-690): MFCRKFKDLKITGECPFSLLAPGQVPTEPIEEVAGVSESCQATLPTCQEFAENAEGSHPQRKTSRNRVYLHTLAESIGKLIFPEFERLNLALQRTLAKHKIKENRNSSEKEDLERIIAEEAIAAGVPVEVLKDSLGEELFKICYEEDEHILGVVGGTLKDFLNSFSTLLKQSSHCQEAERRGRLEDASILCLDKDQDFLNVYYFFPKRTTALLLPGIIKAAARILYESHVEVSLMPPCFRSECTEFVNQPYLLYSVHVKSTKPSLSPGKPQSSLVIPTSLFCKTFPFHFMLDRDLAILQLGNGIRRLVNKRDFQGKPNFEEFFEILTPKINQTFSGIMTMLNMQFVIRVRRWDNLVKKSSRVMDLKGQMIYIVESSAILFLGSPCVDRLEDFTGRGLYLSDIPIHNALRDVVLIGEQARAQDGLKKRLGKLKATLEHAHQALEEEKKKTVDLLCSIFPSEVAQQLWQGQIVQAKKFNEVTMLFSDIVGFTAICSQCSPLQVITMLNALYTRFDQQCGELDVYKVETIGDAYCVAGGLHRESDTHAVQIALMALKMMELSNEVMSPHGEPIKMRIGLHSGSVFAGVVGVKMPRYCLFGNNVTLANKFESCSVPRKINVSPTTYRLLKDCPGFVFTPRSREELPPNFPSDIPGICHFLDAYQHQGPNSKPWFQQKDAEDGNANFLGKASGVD
T1 sequence (P20595 1-619): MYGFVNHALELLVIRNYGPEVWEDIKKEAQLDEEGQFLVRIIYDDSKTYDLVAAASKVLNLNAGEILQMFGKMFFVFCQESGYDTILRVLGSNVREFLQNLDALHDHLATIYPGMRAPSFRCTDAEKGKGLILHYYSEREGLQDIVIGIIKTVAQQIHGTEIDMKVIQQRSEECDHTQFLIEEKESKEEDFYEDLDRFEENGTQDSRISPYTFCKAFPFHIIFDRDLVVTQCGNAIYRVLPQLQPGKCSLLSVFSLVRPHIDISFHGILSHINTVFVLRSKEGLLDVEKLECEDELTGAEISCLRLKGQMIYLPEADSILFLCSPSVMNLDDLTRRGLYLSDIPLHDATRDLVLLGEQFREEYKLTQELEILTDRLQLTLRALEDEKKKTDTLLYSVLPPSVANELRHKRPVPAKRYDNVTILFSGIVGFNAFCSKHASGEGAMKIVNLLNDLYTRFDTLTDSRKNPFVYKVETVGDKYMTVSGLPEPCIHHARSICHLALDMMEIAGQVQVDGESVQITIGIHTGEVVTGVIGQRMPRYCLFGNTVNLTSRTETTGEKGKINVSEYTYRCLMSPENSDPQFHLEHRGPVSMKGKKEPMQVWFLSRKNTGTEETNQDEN
Assay type: cell-based
Experimental: B-2. Effect on a Recombinant Guanylate Cyclase Reporter Cell Line
The cellular action of the compounds of the invention is determined using a recombinant guanylate cyclase reporter cell line, as described in F. Wunder et al., Anal. Biochem. 339, 104-112 (2005).
Representative MEC values (MEC=minimum effective concentration) for the compounds of the invention are shown in the table below (in some cases as mean values for individual determinations): […]
`Cc1cn2c(C(=O)NC(CCCC(F)(F)F)C(C)(C)O)c(C)nc2c(OCc2c(F)cccc2F)n1` (single isomer, unassigned; ent-8) [Example 6, ent-8[(2,6-Difluorobenzyl)oxy]-2,6-dimethyl-N-(7,7,7-trifluoro-2-hydroxy-2-methylheptan-3-yl)imidazo[1,2-a]pyrazine-3-carboxamide] was tested, and the MEC was 3 µM. `Cc1cn2c(C(=O)NC3c4ccccc4CC3O)c(C)nc2c(OCc2c(F)cccc2F)n1` (stereo not drawn) [Example 13, 8-[(2,6-difluorobenzyl)oxy]-N-(2-hydroxy-2,3-dihydro-1H-inden-1-yl)-2,6-dimethylimidazo[1,2-a]pyrazine-3-carboxamide] gave an MEC of 3 µM. `Cc1cn2c(C(=O)NCCCCCC#N)c(C)nc2c(OCc2c(F)cccc2F)n1` [Example 49, N-(5-Cyanopentyl)-8-[(2,6-difluorobenzyl)oxy]-2,6-dimethylimidazo[1,2-a]pyrazine-3-carboxamide] gave an MEC of 1.0 µM. `Cc1cn2c(C(=O)NCC(C)(N)CC(F)F)c(C)nc2c(OCc2c(F)cccc2F)n1` (single isomer, unassigned; enantiomer b) [Example 42, ent-N-(2-Amino-4,4-difluoro-2-methylbutyl)-8-[(2,6-difluorobenzyl)oxy]-2,6-dimethylimidazo[1,2-a]pyrazine-3-carboxamide (enantiomer B)] showed an MEC of 0.3 µM. `Cc1cn2c(C(=O)NCc3ccc(Cl)nc3)c(C)nc2c(OCc2c(F)cccc2F)n1` [Example 28, N-[(6-chloropyridin-3-yl)methyl]-8-[(2,6-difluorobenzyl)oxy]-2,6-dimethylimidazo[1,2-a]pyrazine-3-carboxamide] gave an MEC of 1 µM. Work on `CCCC[C@H](CO)NC(=O)c1c(C)nc2c(OCc3c(F)cccc3F)nc(C)cn12` [Example 3, 8-[(2,6-Difluorobenzyl)oxy]-N-[(2R)-1-hydroxyhexan-2-yl]-2,6-dimethylimidazo[1,2-a]pyrazine-3-carboxamide] yielded an MEC of 3 µM. For `COC(=O)[C@H]1CC[C@H](CNC(=O)c2c(C)nc3c(OCc4c(F)cccc4F)nc(C)cn23)CC1` [Example 8, Methyl trans-4-{[({8-[(2,6-difluorobenzyl)oxy]-2,6-dimethylimidazoyl}carbonyl)amino]methyl}cyclohexanecarboxylate], the MEC was 1 µM. For `Cc1cn2c(C(=O)NCc3ncc[nH]3)c(C)nc2c(OCc2c(F)cccc2F)n1` [Example 25, 8-[(2,6-difluorobenzyl)oxy]-N-(1H-imidazol-2-ylmethyl)-2,6-dimethylimidazo[1,2-a]pyrazine-3-carboxamide], the MEC was 3 µM. In the case of `Cc1cn2c(C(=O)NCC(C)(N)CF)c(C)nc2c(OCc2c(F)cccc2F)n1` (single isomer, unassigned; enantiomer b) [Example 37, ent-N-(2-Amino-3-fluoro-2-methylpropyl)-8-[(2,6-difluorobenzyl)oxy]-2,6-dimethylimidazo[1,2-a]pyrazine-3-carboxamide (enantiomer B)], the MEC is reported as 0.3 µM. `Cc1cn2c(C(=O)NC(C)COCC(F)(F)F)c(C)nc2c(OCc2c(F)cccc2F)n1` (racemic) [Example 31, rac-8-[(2,6-difluorobenzyl)oxy]-2,6-dimethyl-N-[1-(2,2,2-trifluoroethoxy)propan-2-yl]imidazo[1,2-a]pyrazine-3-carboxamide] gave an MEC of 3 µM. For `CC[C@](C)(N)CNC(=O)c1c(C)nc2c(OCc3c(F)cccc3F)nc(C)cn12` [Example 1, ent-N-[(2S)-2-Amino-2-methylbutyl]-8-[(2,6-difluorobenzyl)oxy]-2,6-dimethylimidazo[1,2-a]pyrazine-3-carboxamide], the MEC was 0.77 µM. Work on `Cc1cn2c(C(=O)NN3CCOCC3)c(C)nc2c(OCc2c(F)cccc2F)n1` [Example 45, 8-[(2,6-difluorobenzyl)oxy]-2,6-dimethyl-N-(morpholin-4-yl)imidazo[1,2-a]pyrazine-3-carboxamide] yielded an MEC of 10 µM. With `Cc1cn2c(C(=O)NCCN(CC(F)F)C3CC3)c(C)nc2c(OCc2c(F)cccc2F)n1` [Example 33, N-{2-[cyclopropyl(2,2-difluoroethyl)amino]ethyl}-8-[(2,6-difluorobenzyl)oxy]-2,6-dimethylimidazo[1,2-a]pyrazine-3-carboxamide] the MEC was 3 µM. With `Cc1cn2c(C(=O)NCC3CCC(C#N)CC3)c(C)nc2c(OCc2c(F)cccc2F)n1` (mixture of isomers) [Example 50, N-[(4-cyanocyclohexyl)methyl]-8-[(2,6-difluorobenzyl)oxy]-2,6-dimethylimidazo[1,2-a]pyrazine-3-carboxamide trifluoroacetate (cis/trans mixture)] the MEC was 1.0 µM. Molecule `Cc1cn2c(C(=O)NCC(C)(N)CCCF)c(C)nc2c(OCc2c(F)cccc2F)n1` (single isomer, unassigned; enantiomer b) [Example 40, ent-N-(2-Amino-5-fluoro-2-methylpentyl)-8-[(2,6-difluorobenzyl)oxy]-2,6-dimethylimidazo[1,2-a]pyrazine-3-carboxamide (enantiomer B)] has an MEC of 0.3 µM. `C=CCONC(=O)c1c(C)nc2c(OCc3c(F)cccc3F)nc(C)cn12` [Example 51, N-(allyloxy)-8-[(2,6-difluorobenzyl)oxy]-2,6-dimethylimidazo[1,2-a]pyrazine-3-carboxamide trifluoroacetate] was tested, and the MEC was 3.0 µM. `Cc1cn2c(C(=O)NC3CC4CCCC(C3)N4C)c(C)nc2c(OCc2c(F)cccc2F)n1` (stereo not drawn) [Example 36, 8-[(2,6-difluorobenzyl)oxy]-2,6-dimethyl-N-(9-methyl-9-azabicyclo[3.3.1]non-3-yl)imidazo[1,2-a]pyrazine-3-carboxamide] gave an MEC of 1 µM. `Cc1cn2c(C(=O)NC(C)c3nc(C(F)(F)F)no3)c(C)nc2c(OCc2c(F)cccc2F)n1` (racemic) [Example 26, rac-8-[(2,6-difluorobenzyl)oxy]-2,6-dimethyl-N-{1-[3-(trifluoromethyl)-1,2,4-oxadiazol-5-yl]ethyl}imidazo[1,2-a]pyrazine-3-carboxamide] gave an MEC of 3 µM. Molecule `Cc1cn2c(C(=O)NCCN3CCOCC3)c(C)nc2c(OCc2c(F)cccc2F)n1` [Example 22, 8-[(2,6-difluorobenzyl)oxy]-2,6-dimethyl-N-[2-(morpholin-4-yl)ethyl]imidazo[1,2-a]pyrazine-3-carboxamide] has an MEC of 3 µM. In the case of `CCCCC(NC(=O)c1c(C)nc2c(OCc3c(F)cccc3F)nc(C)cn12)C(C)(C)O` (single isomer, unassigned; ent-8) [Example 7, ent-8[(2,6-Difluorobenzyl)oxy]-N-(2-hydroxy-2-methylheptan-3-yl)-2,6-dimethylimidazo[1,2-a]pyrazine-3-carboxamide], the MEC is reported as 0.3 µM. `Cc1cn2c(C(=O)NC[C@H]3CC[C@H](C(=O)O)CC3)c(C)nc2c(OCc2c(F)cccc2F)n1.Cl` [Example 11, trans-4-{[({8-[(2,6-Difluorobenzyl)oxy]-2,6-dimethylimidazo[1,2-a]pyrazin-3-yl}carbonyl)amino]methyl}cyclohexanecarboxylic acid hydrochloride] was tested, and the MEC was 3 µM. In the case of `Cc1nc2c(OCC3CCC3)nccn2c1C(=O)NCc1ccc(F)c(F)c1` [Example 48, 8-(Cyclobutylmethoxy)-N-(3,4-difluorobenzyl)-2-methylimidazo[1,2-a]pyrazine-3-carboxamide], the MEC is reported as 3.0 µM. For `Cc1cn2c(C(=O)NCC(C)(N)CC(C)C)c(C)nc2c(OCc2c(F)cccc2F)n1` (racemic) [Example 5, rac-N-(2-Amino-2,4-dimethylpentyl)-8-[(2,6-difluorobenzyl)oxy]-2,6-dimethylimidazo[1,2-a]pyrazine-3-carboxamide], the MEC was 1 µM. With `Cc1cn2c(C(=O)NC(C)C#N)c(C)nc2c(OCc2c(F)cccc2F)n1` (racemic) [Example 14, rac-N-(1-cyanoethyl)-8-[(2,6-difluorobenzyl)oxy]-2,6-dimethylimidazo[1,2-a]pyrazine-3-carboxamide] the MEC was 3 µM.
